Results from patent US20240368120A1 (Terns Pharmaceuticals, Inc., priority 2023, published 2024).

How the values were obtained:
human GLP-1R receptor = target: T1, human GLP-1R receptor (Homo sapiens, UniProt P43220); experiment: GLP-1R low expression cell assay (cAMP TR-FRET, CHO-K1_hGLP-1Rlow_clone10 cells); type: cell-based; conditions: for EC50: cAMP TR-FRET, 30 min at 25° C.; for Emax: maximum activation relative to control GLP-1 peptide agonist
T1 construct: expressed in transfected cells
In short: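 Readout is cAMP TR-FRET after 30 min compound stimulation at 25 °C of a low-GLP-1R-expressing CHO-K1 clone (1,000 cells/well), with 10-point 3-fold serial dilutions. Percent activation versus a control GLP-1 peptide, from duplicates, was Hill-fitted to give EC50.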

[1] = Rat pharmacokinetics, oral dosing; type: in vivo, Sprague-Dawley rats; conditions: male, Sprague-Dawley, oral dosing at 3 mg/kg, plasma; for half-life: read-out: Rat T1/2
Method: Intravenous dosing: Compounds were formulated at 1.0 mg/mL in a solution comprising 5% polyethylene glycol 400 and 95% (12% (w/v) sulfobutyl-β-cyclodextrin in water) (v/v). Formulated compounds were sterile filtered through a 0.22 micron filter before dosing. Compounds were administered to male, 7-11-week-old Sprague-Dawley rats by jugular vein cannula infusion over 30 minutes at a dose of 1 mg/kg. Oral dosing: Compounds were formulated at 1.0 mg/mL in a solution comprising 5% polyethylene glycol 400 and 95% (12% (w/v) sulfobutyl-β-cyclodextrin in water) (v/v). Formulated compounds were administered to male, 7-11 week old Sprague-Dawley rats by oral gavage at a dose of 10 mg/kg or 3 mg/kg.
Sample collection: Blood collections of about 0.2 mL per time point were performed from jugular vein or other suitable site of each animal, into pre-chilled commercial EDTA-K2 tubes and placed on wet ice until centrifugation. Blood samples were processed for plasma by centrifugation at approximately 4° C., 3,200 g for 10 min. Plasma was collected and transferred into pre-labeled 96 well plate or polypropylene tubes, quick frozen over dry ice and kept at −60° C. or lower until
Data analysis: Plasma concentration versus time data was plotted in graph and analyzed by non-compartmental approaches using the Phoenix WinNonlin 6.3 software program. Related PK parameters were calculated according to dosing route, e.g., CL, Vdss and C0 for intravenous administration, Cmax, Tmax or % F for extravascular administration, and T1/2, AUC(0-t), AUC(0-inf), MRT(0-t), MRT(0-inf) for all routes.

T1 sequence (P43220 24-463): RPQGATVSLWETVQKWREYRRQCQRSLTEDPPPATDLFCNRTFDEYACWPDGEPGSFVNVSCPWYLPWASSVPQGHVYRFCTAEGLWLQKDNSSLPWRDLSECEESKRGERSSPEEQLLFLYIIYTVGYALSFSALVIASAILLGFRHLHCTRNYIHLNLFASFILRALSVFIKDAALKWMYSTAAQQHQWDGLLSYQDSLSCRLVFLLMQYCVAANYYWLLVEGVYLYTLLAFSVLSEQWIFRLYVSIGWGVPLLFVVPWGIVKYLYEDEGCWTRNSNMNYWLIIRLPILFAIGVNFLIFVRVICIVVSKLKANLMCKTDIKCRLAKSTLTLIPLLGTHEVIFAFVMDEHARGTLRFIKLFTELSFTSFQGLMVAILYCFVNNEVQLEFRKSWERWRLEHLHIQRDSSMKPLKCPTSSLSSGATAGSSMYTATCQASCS

| Structure (SMILES) | EC50 (human GLP-1R receptor) | Emax (human GLP-1R receptor) | Cmax [1] | half-life [1] | bioavailability [1] | AUC [1] |
| --- | --- | --- | --- | --- | --- | --- |
| Cn1c(CN2CCC(c3cccc(OCc4ccc(Cl)c5ccoc45)n3)CC2)nc2c(OC(F)F)cc(C(=O)O)cc21 [Compound 237, 2-((4-(6-((4-Chlorobenzofuran-7-yl)methoxy)pyridin-2-yl)piperidin-1-yl)methyl)-4-(difluoromethoxy)-1-methyl-1H-benzo[d]imidazole-6-carboxylic acid] | < 10 nM | > 85% | 2000 to 5000 ng/mL | 1.5 to 2.5 h | 50 to 85% |  |
| COc1cc(C(=O)O)cc2c1nc(CN1CCC(c3cccc(OCc4ccc(Cl)cc4F)n3)CC1)n2C [Compound 249, 2-((4-(6-((4-Chloro-2-fluorobenzyl)oxy)pyridin-2-yl)piperidin-1-yl)methyl)-4-methoxy-1-methyl-1H-benzo[d]imidazole-6-carboxylic acid] | < 10 nM | > 85% | > 5000 ng/mL | 1.5 to 2.5 h | > 85% |  |
| Cn1c(CN2CCC(c3cccc4c3O[C@@H](c3ccc(C#N)cc3F)CO4)CC2)nc2c(OCCF)cc(C(=O)O)cc21 [Compound 294, (S)-2-((4-(3-(4-Cyano-2-fluorophenyl)-2,3-dihydrobenzo[b][1,4]dioxin-5-yl)piperidin-1-yl)methyl)-4-(2-fluoroethoxy)-1-methyl-1H-benzo[d]imidazole-6-carboxylic acid] | > 1000 nM | 50 to 85% | < 500 ng/mL | ≥ 2.5 h | < 25% | < 500 ng·h/mL |
| [2H]C([2H])(C)Oc1cc(C(=O)O)cc2c1nc(CN1CCC(c3cccc(OCc4ccc(C#N)cc4F)n3)CC1)n2C [Compound 295, 2-((4-(6-((4-Cyano-2-fluorobenzyl)oxy)pyridin-2-yl)piperidin-1-yl)methyl)-4-(ethoxy-1,1-d2)-1-methyl-1H-benzo[d]imidazole-6-carboxylic acid] | < 10 nM | > 85% | 500 to 1000 ng/mL | 1.5 to 2.5 h | 25 to 50% | 500 to 2500 ng·h/mL |
| [2H]C([2H])(C)Oc1cc(C(=O)O)cc2c1nc(CN1CCC(c3cccc(OCc4ccc(Cl)cc4F)n3)CC1)n2C [Compound 296, 2-((4-(6-((4-Chloro-2-fluorobenzyl)oxy)pyridin-2-yl)piperidin-1-yl)methyl)-4-(ethoxy-1,1-d2)-1-methyl-1H-benzo[d]imidazole-6-carboxylic acid] | < 10 nM | > 85% | 2000 to 5000 ng/mL | 1.5 to 2.5 h | 25 to 50% | 2500 to 10000 ng·h/mL |
| COc1cc(C(=O)O)cc2c1nc(CN1CCC(c3cccc(OCc4ccc(Cl)c5c4OCC5)n3)CC1)n2C [Compound 297, 2-((4-(6-((4-Chloro-2,3-dihydrobenzofuran-7-yl)methoxy)pyridin-2-yl)piperidin-1-yl)methyl)-4-methoxy-1-methyl-1H-benzo[d]imidazole-6-carboxylic acid] | < 10 nM | > 85% | 2000 to 5000 ng/mL | 1.5 to 2.5 h | 25 to 50% |  |
| CCOc1cc(C(=O)O)cc2c1nc(CN1CCC(c3cccc(OCc4ccc(C#N)cc4F)n3)CC1)n2C [Compound 298, 2-((4-(6-((4-Cyano-2-fluorobenzyl)oxy)pyridin-2-yl)piperidin-1-yl)methyl)-4-ethoxy-1-methyl-1H-benzo[d]imidazole-6-carboxylic acid] | < 10 nM | > 85% | 1000 to 2000 ng/mL | ≥ 2.5 h | 25 to 50% | 500 to 2500 ng·h/mL |
| Cn1c(CN2CCC(c3cccc4c3O[C@@H](c3ccc(Cl)cc3F)CO4)CC2)nc2c(OCCF)cc(C(=O)O)cc21 [Compound 299, (S)-2-((4-(3-(4-chloro-2-fluorophenyl)-2,3-dihydrobenzo[b][1,4]dioxin-5-yl)piperidin-1-yl)methyl)-4-(2-fluoroethoxy)-1-methyl-1H-benzo[d]imidazole-6-carboxylic acid] | < 10 nM | > 85% | < 500 ng/mL | 1.5 to 2.5 h | 50 to 85% | 500 to 2500 ng·h/mL |
| Cn1c(CN2CCC(c3cccc4c3OC[C@@H](c3ccc(C#N)cc3F)O4)CC2)nc2c(OC(F)F)cc(C(=O)O)cc21 [Compound 300, (R)-2-((4-(2-(4-Cyano-2-fluorophenyl)-2,3-dihydrobenzo[b][1,4]dioxin-5-yl)piperidin-1-yl)methyl)-4-(difluoromethoxy)-1-methyl-1H-benzo[d]imidazole-6-carboxylic acid] | 100 to 1000 nM | > 85% | 2000 to 5000 ng/mL | ≥ 2.5 h | > 85% |  |

Results, then the molecule that gave them:

| EC50 (human GLP-1R receptor) | Emax (human GLP-1R receptor) | Cmax [1] | half-life [1] | bioavailability [1] | AUC [1] | Structure (SMILES) |
| --- | --- | --- | --- | --- | --- | --- |
| 10 to 100 nM | > 85% | 500 to 1000 ng/mL | 1.5 to 2.5 h | 50 to 85% | 500 to 2500 ng·h/mL | COc1c(F)c(C(=O)O)cc2c1nc(CN1CCC(c3cccc(OCc4ccc(C#N)cc4F)n3)CC1)n2C [Compound 301, 2-((4-(6-((4-Cyano-2-fluorobenzyl)oxy)pyridin-2-yl)piperidin-1-yl)methyl)-5-fluoro-4-methoxy-1-methyl-1H-benzo[d]imidazole-6-carboxylic acid] |
| < 10 nM | > 85% | 2000 to 5000 ng/mL | ≥ 2.5 h | 50 to 85% | 2500 to 10000 ng·h/mL | COc1cc(C(=O)O)c(F)c2c1nc(CN1CCC(c3cccc(OCc4ccc(Cl)cc4F)n3)CC1)n2C [Compound 302, 2-((4-(6-((4-Chloro-2-fluorobenzyl)oxy)pyridin-2-yl)piperidin-1-yl)methyl)-7-fluoro-4-methoxy-1-methyl-1H-benzo[d]imidazole-6-carboxylic acid] |
| 10 to 100 nM | > 85% | 500 to 1000 ng/mL | ≥ 2.5 h | < 25% | 500 to 2500 ng·h/mL | COc1cc(C(=O)O)c(F)c2c1nc(CN1CCC(c3cccc(OCc4ccc(C#N)cc4F)n3)CC1)n2C [Compound 303, 2-((4-(6-((4-Cyano-2-fluorobenzyl)oxy)pyridin-2-yl)piperidin-1-yl)methyl)-7-fluoro-4-methoxy-1-methyl-1H-benzo[d]imidazole-6-carboxylic acid] |
| < 10 nM | > 85% | 2000 to 5000 ng/mL | 1.5 to 2.5 h | 50 to 85% | 2500 to 10000 ng·h/mL | COc1cc(C(=O)O)cc2c1nc(Cc1cc(F)c(-c3cccc(OCc4ccc(C#N)cc4F)n3)cc1F)n2C [Compound 304, 2-(4-(6-((4-Cyano-2-fluorobenzyl)oxy)pyridin-2-yl)-2,5-difluorobenzyl)-4-methoxy-1-methyl-1H-benzo[d]imidazole-6-carboxylic acid] |
| 10 to 100 nM | > 85% | 2000 to 5000 ng/mL | 1.5 to 2.5 h | 50 to 85% | 2500 to 10000 ng·h/mL | COc1cc(C(=O)O)cc2c1nc(CN1CCC(c3cccc(OCc4ccc(C(F)F)cc4F)n3)CC1)n2C [Compound 305, 2-((4-(6-((4-(Difluoromethyl)-2-fluorobenzyl)oxy)pyridin-2-yl)piperidin-1-yl)methyl)-4-methoxy-1-methyl-1H-benzo[d]imidazole-6-carboxylic acid] |
| < 10 nM | > 85% | 2000 to 5000 ng/mL | 1.5 to 2.5 h | 50 to 85% | 2500 to 10000 ng·h/mL | COc1cc(C(F)(F)F)ccc1COc1cccc(C2CCN(Cc3nc4c(OC)cc(C(=O)O)cc4n3C)CC2)n1 [Compound 306, 4-Methoxy-2-((4-(6-((2-methoxy-4-(trifluoromethyl)benzyl)oxy)pyridin-2-yl)piperidin-1-yl)methyl)-1-methyl-1H-benzo[d]imidazole-6-carboxylic acid] |
